Measured values reported in ChEMBL document CHEMBL4177725, “Design and synthesis of novel pyrimidine analogs as highly selective, non-covalent BTK inhibitors” (Bioorg Med Chem Lett, 2018).
pIC50: −log10 of the molar value. Converted amounts (≈) assume the structure as drawn. Each block holds one molecule with its values, some of them ahead of it. The source made the active and inactive calls. No cut-off for these calls is given here.

Assays:
[1] = target: T1, Tyrosine-protein kinase BTK (Homo sapiens, UniProt Q06187); test: Inhibition of N-terminal DYKDDDDK tagged and biotinylated BTK activated form (unknown origin) using FITC-labeled Srctide substrate and ATP by microfluidic mobility shift assay
[2] = Apparent permeability in human Caco2 cells; type: ADME, cell-based; conditions: Caco-2
[3] = Kinetic solubility in phosphate buffer at pH 7.4 incubated for 1 hr at room temperature by LC-UV or LC-MS/MS method; type: physicochemical; conditions: read-out: Kinetic_solubility
[4] = target: T1, Tyrosine-protein kinase BTK; test: Inhibition of His-tagged lambda phosphatase pre-treated N-terminal DYKDDDDK tagged and biotinylated BTK unactivated form (unknown origin) using FITC-labeled Srctide substrate and ATP by microfluidic mobility shift assay
[5] = AUC (0 to infinity) in ICR mouse at 2 mg/kg, iv; type: ADME, organism-based; set-up: dose 2 mg/kg, route intravenous, time infinity; conditions: in vivo
[6] = Cmax in ICR mouse at 10 mg/kg, po; type: ADME, organism-based; set-up: dose 10 mg/kg, route oral; conditions: in vivo
[7] = Cmax in ICR mouse at 2 mg/kg, iv; type: ADME, organism-based; set-up: dose 2 mg/kg, route intravenous; conditions: in vivo
[8] = Clearance in ICR mouse at 2 mg/kg, iv; type: ADME, organism-based; conditions: in vivo
[9] = Tmax in ICR mouse at 2 mg/kg, iv; type: ADME, organism-based; conditions: in vivo
[10] = Half life in ICR mouse at 2 mg/kg, iv; type: ADME, organism-based; conditions: in vivo
[11] = MRT (0 to infinity) in ICR mouse at 2 mg/kg, iv; type: ADME, organism-based; conditions: in vivo
[12] = Apparent volume of distribution in ICR mouse at 2 mg/kg, iv; type: ADME, organism-based; conditions: in vivo, read-out: Vz
[13] = AUC (0 to t) in ICR mouse at 2 mg/kg, iv; type: ADME, organism-based; conditions: in vivo
[14] = Half life in ICR mouse at 10 mg/kg, po; type: ADME, organism-based; conditions: in vivo
[15] = AUC (0 to infinity) in ICR mouse at 10 mg/kg, po; type: ADME, organism-based; set-up: dose 10 mg/kg, time infinity, route oral; conditions: in vivo
[16] = target: T1, Tyrosine-protein kinase BTK; test: Inhibition of anti-IgM antibody stimulated BTK Tyr223 autophosphorylation in human Ramos cells at 30 nM pre-incubated for 1 hr followed by anti-IgM stimulation for 10 mins by Western blotting; type: cell-based
[17] = Tmax in ICR mouse at 10 mg/kg, po; type: ADME, organism-based; conditions: in vivo
[18] = Oral bioavailability in ICR mouse at 10 mg/kg; type: ADME, organism-based; conditions: in vivo
[19] = MRT (0 to infinity) in ICR mouse at 10 mg/kg, po; type: ADME, organism-based; conditions: in vivo
[20] = AUC (0 to t) in ICR mouse at 10 mg/kg, po; type: ADME, organism-based; conditions: in vivo
[21] = target: T2, Tyrosine-protein kinase Tec (Homo sapiens) (UniProt P42680); test: Inhibition of N-terminal GST-fused human TEC catalytic domain (359 to 631 amino acids) at 0.3 uM
T2 sequence (whole entry): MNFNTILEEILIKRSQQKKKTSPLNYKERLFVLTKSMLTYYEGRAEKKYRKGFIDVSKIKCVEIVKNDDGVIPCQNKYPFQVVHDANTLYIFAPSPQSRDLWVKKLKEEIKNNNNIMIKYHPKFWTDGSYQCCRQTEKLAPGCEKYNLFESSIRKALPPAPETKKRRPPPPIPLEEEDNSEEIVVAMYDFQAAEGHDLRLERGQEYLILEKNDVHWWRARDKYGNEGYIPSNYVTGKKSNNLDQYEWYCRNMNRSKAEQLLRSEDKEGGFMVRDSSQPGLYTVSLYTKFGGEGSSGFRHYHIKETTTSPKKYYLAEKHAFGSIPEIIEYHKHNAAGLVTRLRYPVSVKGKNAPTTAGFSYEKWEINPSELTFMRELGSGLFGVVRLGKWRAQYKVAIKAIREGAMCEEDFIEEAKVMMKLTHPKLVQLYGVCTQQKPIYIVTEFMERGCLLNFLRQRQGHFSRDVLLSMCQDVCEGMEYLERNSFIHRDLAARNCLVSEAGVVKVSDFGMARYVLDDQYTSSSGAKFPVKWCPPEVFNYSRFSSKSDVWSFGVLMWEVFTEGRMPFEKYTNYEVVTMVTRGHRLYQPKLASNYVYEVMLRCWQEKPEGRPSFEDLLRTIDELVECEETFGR

Mus musculus = test: Inhibition of passive cutaneous anaphylaxis reaction in anti-DNP IgE sensitized mouse model of passive cutaneous anaphylaxis at 30 mg/kg, po dosed 46 hrs before DNP-BSA/dye mixture injection and measured after 30 mins; type: functional
[22] = target: T3, Cytoplasmic tyrosine-protein kinase BMX (Homo sapiens) (UniProt P51813); test: Inhibition of N-terminal GST-fused human full length BMX at 0.3 uM
T3 sequence (whole entry): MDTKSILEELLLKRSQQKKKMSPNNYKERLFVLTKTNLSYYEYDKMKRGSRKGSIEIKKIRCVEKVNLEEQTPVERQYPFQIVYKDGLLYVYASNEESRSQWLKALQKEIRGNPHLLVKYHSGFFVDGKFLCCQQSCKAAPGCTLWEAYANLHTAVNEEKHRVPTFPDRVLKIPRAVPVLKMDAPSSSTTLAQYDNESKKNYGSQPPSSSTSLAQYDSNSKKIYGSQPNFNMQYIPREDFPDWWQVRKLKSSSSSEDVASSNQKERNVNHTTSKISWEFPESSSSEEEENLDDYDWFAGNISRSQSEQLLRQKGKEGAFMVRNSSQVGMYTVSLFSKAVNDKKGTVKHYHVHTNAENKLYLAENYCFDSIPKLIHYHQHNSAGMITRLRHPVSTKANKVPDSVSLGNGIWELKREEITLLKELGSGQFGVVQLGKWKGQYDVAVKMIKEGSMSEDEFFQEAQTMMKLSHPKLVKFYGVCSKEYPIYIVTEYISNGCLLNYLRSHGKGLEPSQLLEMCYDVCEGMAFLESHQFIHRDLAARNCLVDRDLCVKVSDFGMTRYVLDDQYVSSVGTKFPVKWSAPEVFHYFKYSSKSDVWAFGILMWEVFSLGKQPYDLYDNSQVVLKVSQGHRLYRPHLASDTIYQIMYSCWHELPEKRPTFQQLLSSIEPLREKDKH

[23] = target: Voltage-gated inwardly rectifying potassium channel KCNH2 (Homo sapiens, UniProt Q12809); test: Inhibition of human ERG
[24] = Stability in mouse microsomes; type: ADME, Microsome
[25] = target: Tyrosine-protein kinase SYK (Homo sapiens, UniProt P43405); test: Inhibition of SYK (unknown origin) using FITC-labeled Blk/Lyntide substrate and ATP by microfluidic mobility shift assay
[26] = target: T1, Tyrosine-protein kinase BTK; test: Inhibition of BTK (unknown origin) using FITC-labeled Srctide substrate and ATP by microfluidic mobility shift assay
[27] = Stability in human microsomes; type: ADME, Microsome

T1 sequence (Q06187 whole entry): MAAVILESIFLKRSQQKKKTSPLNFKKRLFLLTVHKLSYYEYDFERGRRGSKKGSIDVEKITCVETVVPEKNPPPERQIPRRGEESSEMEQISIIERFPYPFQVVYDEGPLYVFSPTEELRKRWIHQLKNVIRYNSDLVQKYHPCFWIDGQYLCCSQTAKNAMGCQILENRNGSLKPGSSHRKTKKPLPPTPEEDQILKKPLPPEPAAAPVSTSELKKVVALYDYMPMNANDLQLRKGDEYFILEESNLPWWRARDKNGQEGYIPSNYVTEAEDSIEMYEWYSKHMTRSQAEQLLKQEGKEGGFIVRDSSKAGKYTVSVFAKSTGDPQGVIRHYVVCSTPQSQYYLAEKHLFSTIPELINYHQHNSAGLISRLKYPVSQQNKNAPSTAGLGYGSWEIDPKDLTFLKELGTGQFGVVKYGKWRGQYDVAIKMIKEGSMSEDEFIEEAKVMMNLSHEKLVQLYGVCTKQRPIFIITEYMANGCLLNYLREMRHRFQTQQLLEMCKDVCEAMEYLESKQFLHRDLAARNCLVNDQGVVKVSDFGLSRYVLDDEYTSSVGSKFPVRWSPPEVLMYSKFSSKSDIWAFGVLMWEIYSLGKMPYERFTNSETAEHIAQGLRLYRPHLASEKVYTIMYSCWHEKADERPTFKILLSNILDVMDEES
Chain of Voltage-gated inwardly rectifying potassium channel KCNH2 (Q12809 whole entry): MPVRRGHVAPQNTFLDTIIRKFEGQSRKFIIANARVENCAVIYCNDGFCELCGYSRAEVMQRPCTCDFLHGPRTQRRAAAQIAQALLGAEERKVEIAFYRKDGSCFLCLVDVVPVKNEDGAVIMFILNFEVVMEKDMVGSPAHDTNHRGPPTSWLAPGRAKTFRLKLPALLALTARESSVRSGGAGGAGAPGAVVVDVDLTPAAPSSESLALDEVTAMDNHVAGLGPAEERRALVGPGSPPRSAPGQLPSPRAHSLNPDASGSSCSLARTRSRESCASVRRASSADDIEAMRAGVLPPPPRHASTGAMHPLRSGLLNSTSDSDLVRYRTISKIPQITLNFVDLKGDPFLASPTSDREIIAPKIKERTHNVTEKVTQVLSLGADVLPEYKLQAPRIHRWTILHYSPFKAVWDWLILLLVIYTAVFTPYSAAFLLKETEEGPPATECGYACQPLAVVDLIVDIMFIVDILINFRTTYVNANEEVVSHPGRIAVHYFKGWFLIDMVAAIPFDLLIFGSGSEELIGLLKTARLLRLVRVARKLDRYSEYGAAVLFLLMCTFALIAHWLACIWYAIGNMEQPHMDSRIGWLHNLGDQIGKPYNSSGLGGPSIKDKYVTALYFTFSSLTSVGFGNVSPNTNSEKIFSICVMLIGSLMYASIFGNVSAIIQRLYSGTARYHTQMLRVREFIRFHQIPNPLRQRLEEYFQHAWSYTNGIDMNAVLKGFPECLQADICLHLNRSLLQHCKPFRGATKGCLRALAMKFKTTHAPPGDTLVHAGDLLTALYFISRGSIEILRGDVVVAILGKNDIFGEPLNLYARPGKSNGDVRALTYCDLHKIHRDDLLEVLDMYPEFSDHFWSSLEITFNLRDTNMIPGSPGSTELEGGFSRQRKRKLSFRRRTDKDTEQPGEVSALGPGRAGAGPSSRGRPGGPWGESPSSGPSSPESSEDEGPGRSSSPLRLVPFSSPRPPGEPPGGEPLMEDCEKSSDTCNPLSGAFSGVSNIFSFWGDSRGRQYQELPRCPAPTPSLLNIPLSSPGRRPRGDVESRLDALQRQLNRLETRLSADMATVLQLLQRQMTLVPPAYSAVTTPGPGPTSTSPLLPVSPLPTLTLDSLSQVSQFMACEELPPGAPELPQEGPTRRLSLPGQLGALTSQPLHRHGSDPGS

SMILES: Nc1cc(-c2cccc(-n3ccc4cc(C5CC5)cc(F)c4c3=O)c2CO)nc(Nc2ccc(CN3CCOCC3)cc2)n1
pIC50 [1]: < 5.00
pIC50 [4]: 6.51

SMILES: Cn1ccc(Nc2nc(N)cc(-c3cccc(-n4ccc5cc(C6CC6)cc(F)c5c4=O)c3CO)n2)c1
pIC50 [1]: 7.21
pIC50 [4]: 7.77

SMILES: CC(C)(C)c1ccc(C(=O)Nc2cccc(-c3ccnc(Nc4ccc5cc[nH]c5c4)n3)c2)cc1
Stability [24]: Unstable
pIC50 [25]: < 5.00
pIC50 [26]: 7.28
Stability [27]: Unstable

SMILES: COc1ccc(Nc2nc(N)cc(-c3cccc(-n4ccc5cc(C6CC6)cc(F)c5c4=O)c3CO)n2)cc1
pIC50 [1]: 7.41
pIC50 [4]: 8.60

SMILES: CC(C)(C)c1ccc(C(=O)Nc2cccc(-c3ccnc(Nc4ccc5cn[nH]c5c4)n3)c2)cc1
pIC50 [25]: 6.44
pIC50 [26]: 5.14

SMILES: Cn1ccc(Nc2nc(N)cc(-c3cccc(-n4ccc5cc(C6CC6)cc(F)c5c4=O)c3CO)n2)n1
pIC50 [1]: 6.61
pIC50 [4]: 7.86

SMILES: Cc1c(NC(=O)c2ccc(C(C)(C)C)cc2)cccc1-c1ccnc(Nc2ccc(C(=O)N3CCOCC3)cc2)n1
Stability [24]: Unstable
pIC50 [25]: < 5.00
Stability [27]: Unstable

SMILES: COc1cc(Nc2nccc(-c3cccc(NC(=O)c4ccc(C(C)(C)C)cc4)c3C)n2)cc(OC)c1OC
Stability [24]: Unstable
pIC50 [25]: < 5.00
pIC50 [26]: 8.21
Stability [27]: Unstable

SMILES: Cc1c(NC(=O)c2ccc(C(C)(C)C)cc2)cccc1-c1ccnc(Nc2ccc3[nH]ncc3c2)n1
Stability [24]: Unstable
pIC50 [25]: < 5.00
pIC50 [26]: 7.40
Stability [27]: Unstable

SMILES: Cc1c(NC(=O)c2ccc(C(C)(C)C)cc2)cccc1-c1ccnc(Nc2ccc3cn[nH]c3c2)n1
Stability [24]: Unstable
pIC50 [25]: < 5.00
pIC50 [26]: 6.35 to 6.36
Stability [27]: Unstable

Further molecules by rising pIC50 [1], results first:

pIC50 [1]: 7.69
SMILES: Cn1cc(Nc2nc(N)cc(-c3cccc(-n4ccc5cc(C6CC6)cc(F)c5c4=O)c3CO)n2)cc1C#N

pIC50 [1]: 7.89
pIC50 [4]: 9.22
SMILES: Nc1cc(-c2cccc(-n3ccc4cc(C5CC5)cc(F)c4c3=O)c2CO)nc(Nc2ccc(N3CCOCC3)cc2)n1

Papp [2]: 0.7 ×10⁻⁶ cm/s
pIC50 [1]: 7.92
pIC50 [4]: 9.22
SMILES: Nc1cc(-c2cccc(-n3ccc4cc(C5CC5)cc(F)c4c3=O)c2CO)nc(Nc2cnn(C3(CO)CC3)c2)n1

Papp [2]: 5.7 ×10⁻⁶ cm/s
pIC50 [1]: 7.96
pIC50 [4]: 9.22
SMILES: CC(C)(C)n1cc(Nc2nc(N)cc(-c3cccc(-n4ccc5cc(C6CC6)cc(F)c5c4=O)c3CO)n2)cn1

Papp [2]: 5.4 ×10⁻⁶ cm/s
pIC50 [1]: 8.00
pIC50 [4]: 9.40
SMILES: CCn1cc(Nc2nc(N)cc(-c3cccc(-n4ccc5cc(C6CC6)cc(F)c5c4=O)c3CO)n2)cn1

pIC50 [1]: 8.09
SMILES: Nc1cc(-c2cccc(-n3ccc4cc(C5CC5)cc(F)c4c3=O)c2CO)nc(Nc2cn[nH]c2)n1

pIC50 [1]: 8.23
SMILES: CC(=O)c1cc(Nc2nc(N)cc(-c3cccc(-n4ccc5cc(C6CC6)cc(F)c5c4=O)c3CO)n2)cn1C

pIC50 [1]: 8.28
SMILES: CN1CCN(c2ccc(Nc3nc(N)cc(-c4cccc(-n5ccc6cc(C7CC7)cc(F)c6c5=O)c4CO)n3)cc2)CC1

AUC(0-inf) [5]: 3480 ng·h/mL
Cmax [6]: 4540 ng/mL
Cmax [7]: 2950 ng/mL
clearance [8]: 9.67 mL/min/kg
Tmax [9]: 4.98 min
Papp [2]: 6.3 ×10⁻⁶ cm/s
half-life [10]: 1.12 h
MRT inf [11]: 1.13 h
Vd [12]: 0.93 L/kg
AUC(0-t) [13]: 3460 ng·h/mL
half-life [14]: 0.96 h
AUC(0-inf) [15]: 12800 ng·h/mL
inhibition [16]: Active
solubility kinetic at 1 h [3]: 18 µM (≈ 8.96 µg/mL)
Tmax [17]: 0.5 h
pIC50 [1]: 8.43
bioavailability [18]: 73.7%
pIC50 [4]: 9.40
MRT inf [19]: 1.91 h
AUC(0-t) [20]: 12700 ng·h/mL
SMILES: Cn1cc(Nc2nc(N)cc(-c3cccc(-n4ccc5cc(C6CC6)cc(F)c5c4=O)c3CO)n2)cn1

Papp [2]: 6.1 ×10⁻⁶ cm/s
solubility kinetic at 1 h [3]: 6.3 µM (≈ 3.39 µg/mL)
pIC50 [1]: 8.47
SMILES: Nc1cc(-c2cccc(-n3ccc4cc(C5CC5)cc(F)c4c3=O)c2CO)nc(Nc2cnn(CC3CC3)c2)n1

Papp [2]: 3.1 ×10⁻⁶ cm/s
solubility kinetic at 1 h [3]: 2.1 µM (≈ 1.15 µg/mL)
pIC50 [1]: 8.48
pIC50 [4]: 9.70
SMILES: Nc1cc(-c2cccc(-n3ccc4cc(C5CC5)cc(F)c4c3=O)c2CO)nc(Nc2cnn(CC(F)F)c2)n1

inhibition [21]: 92%
AUC(0-inf) [5]: 3170 ng·h/mL
Cmax [6]: 5940 ng/mL
Cmax [7]: 2260 ng/mL
clearance [8]: 10.5 mL/min/kg
Tmax [9]: 4.98 min
Papp [2]: 6.9 ×10⁻⁶ cm/s
half-life [10]: 1.09 h
inhibition [22]: 70%
MRT inf [11]: 1.36 h
Vd [12]: 1 L/kg
AUC(0-t) [13]: 3150 ng·h/mL
half-life [14]: 1.31 h
AUC(0-inf) [15]: 19100 ng·h/mL
inhibition [16]: Active
solubility kinetic at 1 h [3]: 9.8 µM (≈ 5.13 µg/mL)
Tmax [17]: 1 h
pIC50 [1]: 8.55
bioavailability [18]: 120%
MRT inf [19]: 2.24 h
AUC(0-t) [20]: 18700 ng·h/mL
SMILES: Nc1cc(-c2cccc(-n3ccc4cc(C5CC5)cc(F)c4c3=O)c2CO)nc(Nc2cnn(C3CC3)c2)n1
inhibition in vivo at 30 mg/kg (Mus musculus): 46%
inhibition (INH) [23]: Active

Papp [2]: 3.7 ×10⁻⁶ cm/s
solubility kinetic at 1 h [3]: 4 µM (≈ 2.1 µg/mL)
pIC50 [1]: 8.59
pIC50 [4]: 9.70
SMILES: CC(C)n1cc(Nc2nc(N)cc(-c3cccc(-n4ccc5cc(C6CC6)cc(F)c5c4=O)c3CO)n2)cn1
